ChEMBL document CHEMBL5465560, “Selectivity Literature for EUbOPEN Chemogenomic Library” (2024)

What was measured:
[1] = biological target: Serine/threonine-protein kinase 24 (Homo sapiens) (UniProt Q9Y6E0); test: Selectivity interaction (Kinase panel (KiNativ target engagement assay in Jurkat cells)) EUB0001635a STK24; assay type: cell-based; conditions: Selectivity number of off-targets 0.0, Selectivity number of targets 233.0, Source Knowledge https://www.sciencedirect.com/science/article/pii/S2451945619300674?via%3Dihub, at 1 µM
[2] = biological target: Receptor tyrosine-protein kinase erbB-2 (Homo sapiens, UniProt P04626); conditions: at 10 µM
[3] = biological target: T1, Casein kinase I isoform alpha-like (Homo sapiens) (UniProt Q8N752); test: Selectivity interaction (KinomeScan (DiscoverX)) EUB0000045b CSNK1A1L
T1 sequence (whole entry): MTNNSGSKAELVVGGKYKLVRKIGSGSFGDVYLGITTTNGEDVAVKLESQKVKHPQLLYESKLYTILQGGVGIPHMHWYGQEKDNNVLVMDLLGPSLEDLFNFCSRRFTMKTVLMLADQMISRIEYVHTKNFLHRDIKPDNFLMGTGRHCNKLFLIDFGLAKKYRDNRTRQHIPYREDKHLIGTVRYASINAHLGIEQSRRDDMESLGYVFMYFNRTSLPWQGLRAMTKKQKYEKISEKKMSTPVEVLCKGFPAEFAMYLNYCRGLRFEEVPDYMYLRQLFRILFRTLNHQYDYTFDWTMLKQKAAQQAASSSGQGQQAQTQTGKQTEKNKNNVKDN

[4] = biological target: Death-associated protein kinase 2 (Homo sapiens) (UniProt Q9UIK4); test: Selectivity interaction (LanthaScreen Eu Kinase Binding Assay) EUB0001632a DAPK2; conditions: at 10 µM
[5] = biological target: Mitogen-activated protein kinase 8 (Homo sapiens, UniProt P45983); test: Selectivity interaction (Kinase panel (Z-LYTE Assay)) EUB0001632a MAPK8; conditions: at 10 µM
Activated CDC42 kinase 1 = Activated CDC42 kinase 1 (Homo sapiens, UniProt Q07912); test: Selectivity interaction (ProQinase) EUB0000171b TNK2
[6] = biological target: Serine/threonine-protein kinase PAK 4 (Homo sapiens, UniProt O96013); test: Selectivity interaction (ProQinase) EUB0000171b PAK4
[7] = biological target: T2, Calcium/calmodulin-dependent protein kinase type IV (Homo sapiens) (UniProt Q16566); test: Selectivity interaction (Kinase panel (DSF assay)) EUB0001558a CAMK4
T2 sequence (whole entry): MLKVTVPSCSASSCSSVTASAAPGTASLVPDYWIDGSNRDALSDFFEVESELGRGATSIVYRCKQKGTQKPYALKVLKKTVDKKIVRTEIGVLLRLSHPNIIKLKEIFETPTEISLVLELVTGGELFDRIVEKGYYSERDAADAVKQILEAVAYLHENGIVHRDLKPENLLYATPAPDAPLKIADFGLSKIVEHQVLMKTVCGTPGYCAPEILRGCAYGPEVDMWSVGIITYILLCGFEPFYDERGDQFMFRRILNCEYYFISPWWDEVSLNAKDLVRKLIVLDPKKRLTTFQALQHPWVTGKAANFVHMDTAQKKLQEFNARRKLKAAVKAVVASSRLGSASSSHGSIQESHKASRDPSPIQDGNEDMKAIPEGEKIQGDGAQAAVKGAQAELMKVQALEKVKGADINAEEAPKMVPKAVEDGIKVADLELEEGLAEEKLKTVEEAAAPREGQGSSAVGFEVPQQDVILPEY

[8] = biological target: T3, Inhibitor of nuclear factor kappa-B kinase subunit epsilon (Homo sapiens) (UniProt Q14164); test: Selectivity interaction (KinomeScan (DiscoverX)) EUB0000618a IKBKE; conditions: at 10 µM
T3 sequence (whole entry): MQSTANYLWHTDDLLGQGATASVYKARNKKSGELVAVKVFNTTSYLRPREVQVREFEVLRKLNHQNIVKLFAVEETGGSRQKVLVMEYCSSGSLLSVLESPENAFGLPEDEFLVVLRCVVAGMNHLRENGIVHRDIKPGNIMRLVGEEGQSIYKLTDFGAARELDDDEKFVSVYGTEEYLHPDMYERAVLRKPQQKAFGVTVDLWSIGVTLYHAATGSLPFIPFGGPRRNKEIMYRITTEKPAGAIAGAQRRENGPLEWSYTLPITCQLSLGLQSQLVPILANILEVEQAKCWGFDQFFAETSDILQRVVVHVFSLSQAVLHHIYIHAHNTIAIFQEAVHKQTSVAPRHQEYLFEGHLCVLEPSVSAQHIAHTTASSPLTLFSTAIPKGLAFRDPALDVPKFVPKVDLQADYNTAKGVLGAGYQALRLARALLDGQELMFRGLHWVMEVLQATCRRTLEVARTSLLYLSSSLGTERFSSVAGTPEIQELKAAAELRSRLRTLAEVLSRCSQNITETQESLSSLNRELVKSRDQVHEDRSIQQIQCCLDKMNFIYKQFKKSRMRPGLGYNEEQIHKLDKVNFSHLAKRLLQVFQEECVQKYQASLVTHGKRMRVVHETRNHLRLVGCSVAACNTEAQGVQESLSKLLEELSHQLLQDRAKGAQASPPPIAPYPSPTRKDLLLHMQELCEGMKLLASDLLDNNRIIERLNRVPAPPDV

[9] = biological target: Calcium/calmodulin-dependent protein kinase kinase 2 (Homo sapiens) (UniProt Q96RR4); test: Selectivity interaction (ActivX KiNativ screen (kinase selectivity in THP-1 cell lysates)) EUB0000639a CAMKK2; assay type: subcellular; conditions: lysate, at 5 µM
[10] = biological target: Tyrosine-protein kinase JAK2 (Homo sapiens, UniProt O60674); test: Selectivity interaction (KinomeScan (DiscoverX)) EUB0000655a JAK2; conditions: at 10 µM
[11] = biological target: Calcium/calmodulin-dependent protein kinase type II subunit gamma (Homo sapiens) (UniProt Q13555); test: Selectivity interaction (KinomeScan (DiscoverX)) EUB0000655a CAMK2G; conditions: at 10 µM
Calcium/calmodulin-dependent protein kinase type II subunit gamma (Homo sapiens), sequence (Q13555 whole entry): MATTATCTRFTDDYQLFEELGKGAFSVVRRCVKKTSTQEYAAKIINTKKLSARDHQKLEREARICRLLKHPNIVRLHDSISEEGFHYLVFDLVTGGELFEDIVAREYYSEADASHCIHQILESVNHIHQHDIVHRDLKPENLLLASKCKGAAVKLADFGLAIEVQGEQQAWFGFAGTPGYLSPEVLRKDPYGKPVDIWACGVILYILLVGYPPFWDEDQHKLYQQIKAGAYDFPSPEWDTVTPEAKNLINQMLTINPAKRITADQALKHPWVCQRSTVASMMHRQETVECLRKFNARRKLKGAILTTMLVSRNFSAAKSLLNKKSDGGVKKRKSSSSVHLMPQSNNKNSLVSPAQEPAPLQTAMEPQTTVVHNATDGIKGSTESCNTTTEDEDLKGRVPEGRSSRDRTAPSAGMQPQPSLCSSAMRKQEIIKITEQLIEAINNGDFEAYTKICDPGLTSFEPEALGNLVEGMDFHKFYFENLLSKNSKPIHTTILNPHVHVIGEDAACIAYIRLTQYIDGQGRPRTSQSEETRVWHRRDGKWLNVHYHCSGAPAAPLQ

Activated CDC42 kinase 1, sequence (Q07912 whole entry, looked up): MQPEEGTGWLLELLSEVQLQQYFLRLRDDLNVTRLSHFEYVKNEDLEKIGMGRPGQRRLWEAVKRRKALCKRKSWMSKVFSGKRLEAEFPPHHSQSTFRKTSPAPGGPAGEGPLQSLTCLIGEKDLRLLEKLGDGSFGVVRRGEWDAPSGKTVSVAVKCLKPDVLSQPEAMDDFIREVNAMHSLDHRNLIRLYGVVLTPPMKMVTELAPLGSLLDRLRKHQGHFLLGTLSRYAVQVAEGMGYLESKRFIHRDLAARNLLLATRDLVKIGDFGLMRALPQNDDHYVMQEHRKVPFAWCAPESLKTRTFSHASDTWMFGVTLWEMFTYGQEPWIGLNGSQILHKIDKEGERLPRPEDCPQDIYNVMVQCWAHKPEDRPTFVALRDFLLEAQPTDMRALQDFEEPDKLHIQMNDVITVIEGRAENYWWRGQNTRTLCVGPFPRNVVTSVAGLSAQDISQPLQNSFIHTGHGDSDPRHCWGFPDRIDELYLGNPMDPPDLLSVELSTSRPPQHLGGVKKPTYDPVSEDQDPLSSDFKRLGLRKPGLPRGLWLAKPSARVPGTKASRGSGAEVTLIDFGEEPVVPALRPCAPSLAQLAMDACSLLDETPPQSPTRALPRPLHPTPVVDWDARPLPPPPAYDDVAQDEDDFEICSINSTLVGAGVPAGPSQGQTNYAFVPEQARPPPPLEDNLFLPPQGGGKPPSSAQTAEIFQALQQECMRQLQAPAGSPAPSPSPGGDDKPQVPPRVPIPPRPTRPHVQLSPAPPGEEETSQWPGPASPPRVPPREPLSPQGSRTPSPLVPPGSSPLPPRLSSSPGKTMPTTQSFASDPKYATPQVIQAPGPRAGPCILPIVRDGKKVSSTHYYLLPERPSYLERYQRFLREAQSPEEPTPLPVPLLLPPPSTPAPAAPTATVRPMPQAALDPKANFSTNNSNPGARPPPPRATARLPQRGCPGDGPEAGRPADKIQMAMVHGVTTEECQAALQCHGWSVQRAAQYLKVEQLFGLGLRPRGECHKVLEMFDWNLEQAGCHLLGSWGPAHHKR
Serine/threonine-protein kinase PAK 4, sequence (O96013 whole entry, looked up): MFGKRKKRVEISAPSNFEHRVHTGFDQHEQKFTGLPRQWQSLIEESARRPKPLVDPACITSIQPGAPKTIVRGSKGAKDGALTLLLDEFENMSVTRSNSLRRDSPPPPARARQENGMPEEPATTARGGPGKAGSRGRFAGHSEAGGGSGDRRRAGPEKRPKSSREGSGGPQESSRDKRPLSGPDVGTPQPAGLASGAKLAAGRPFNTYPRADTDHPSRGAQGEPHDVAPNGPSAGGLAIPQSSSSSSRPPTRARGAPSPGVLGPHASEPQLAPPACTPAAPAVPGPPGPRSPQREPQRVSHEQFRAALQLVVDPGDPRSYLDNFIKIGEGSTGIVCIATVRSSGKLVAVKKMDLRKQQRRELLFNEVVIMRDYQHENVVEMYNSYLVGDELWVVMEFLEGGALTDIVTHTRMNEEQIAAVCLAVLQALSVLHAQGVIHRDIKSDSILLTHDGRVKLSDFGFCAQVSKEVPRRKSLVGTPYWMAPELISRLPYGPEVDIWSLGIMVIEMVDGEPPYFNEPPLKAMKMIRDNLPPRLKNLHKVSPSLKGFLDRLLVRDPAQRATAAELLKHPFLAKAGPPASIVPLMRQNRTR
Serine/threonine-protein kinase 24 (Homo sapiens), sequence (Q9Y6E0 whole entry, looked up): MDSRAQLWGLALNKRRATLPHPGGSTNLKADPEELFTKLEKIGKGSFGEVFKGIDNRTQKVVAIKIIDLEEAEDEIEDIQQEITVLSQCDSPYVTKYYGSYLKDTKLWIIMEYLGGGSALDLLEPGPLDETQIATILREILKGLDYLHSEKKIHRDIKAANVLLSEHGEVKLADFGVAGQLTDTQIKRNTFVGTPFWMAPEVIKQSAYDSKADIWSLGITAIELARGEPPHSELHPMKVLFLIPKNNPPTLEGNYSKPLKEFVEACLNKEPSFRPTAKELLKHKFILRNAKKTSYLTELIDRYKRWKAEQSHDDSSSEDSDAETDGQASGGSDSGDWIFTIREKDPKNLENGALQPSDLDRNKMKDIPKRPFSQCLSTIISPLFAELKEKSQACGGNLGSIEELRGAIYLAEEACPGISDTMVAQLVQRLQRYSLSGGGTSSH
Mitogen-activated protein kinase 8, sequence (P45983 whole entry): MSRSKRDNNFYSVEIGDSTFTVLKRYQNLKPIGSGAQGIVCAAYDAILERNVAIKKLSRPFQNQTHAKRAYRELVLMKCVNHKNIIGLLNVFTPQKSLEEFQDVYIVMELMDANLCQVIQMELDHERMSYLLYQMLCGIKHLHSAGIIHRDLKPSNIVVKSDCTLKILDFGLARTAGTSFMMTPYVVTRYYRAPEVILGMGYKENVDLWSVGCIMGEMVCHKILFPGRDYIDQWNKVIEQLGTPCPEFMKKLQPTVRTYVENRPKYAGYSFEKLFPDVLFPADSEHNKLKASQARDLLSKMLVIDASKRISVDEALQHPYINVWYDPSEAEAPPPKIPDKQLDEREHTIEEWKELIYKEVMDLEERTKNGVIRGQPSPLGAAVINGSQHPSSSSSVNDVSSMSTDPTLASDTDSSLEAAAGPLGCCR
Death-associated protein kinase 2 (Homo sapiens), sequence (Q9UIK4 whole entry, looked up): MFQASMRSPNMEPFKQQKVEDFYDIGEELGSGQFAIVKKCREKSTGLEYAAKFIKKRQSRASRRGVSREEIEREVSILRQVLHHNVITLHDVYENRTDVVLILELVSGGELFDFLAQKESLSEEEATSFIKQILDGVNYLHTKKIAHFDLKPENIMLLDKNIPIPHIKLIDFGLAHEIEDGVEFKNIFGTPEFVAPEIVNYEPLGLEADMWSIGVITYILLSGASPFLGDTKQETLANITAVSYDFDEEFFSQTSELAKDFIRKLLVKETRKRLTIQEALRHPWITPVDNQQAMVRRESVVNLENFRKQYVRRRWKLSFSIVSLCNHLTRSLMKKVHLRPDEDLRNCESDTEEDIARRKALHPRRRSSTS
Calcium/calmodulin-dependent protein kinase kinase 2 (Homo sapiens), sequence (Q96RR4 2-588 limits assumed): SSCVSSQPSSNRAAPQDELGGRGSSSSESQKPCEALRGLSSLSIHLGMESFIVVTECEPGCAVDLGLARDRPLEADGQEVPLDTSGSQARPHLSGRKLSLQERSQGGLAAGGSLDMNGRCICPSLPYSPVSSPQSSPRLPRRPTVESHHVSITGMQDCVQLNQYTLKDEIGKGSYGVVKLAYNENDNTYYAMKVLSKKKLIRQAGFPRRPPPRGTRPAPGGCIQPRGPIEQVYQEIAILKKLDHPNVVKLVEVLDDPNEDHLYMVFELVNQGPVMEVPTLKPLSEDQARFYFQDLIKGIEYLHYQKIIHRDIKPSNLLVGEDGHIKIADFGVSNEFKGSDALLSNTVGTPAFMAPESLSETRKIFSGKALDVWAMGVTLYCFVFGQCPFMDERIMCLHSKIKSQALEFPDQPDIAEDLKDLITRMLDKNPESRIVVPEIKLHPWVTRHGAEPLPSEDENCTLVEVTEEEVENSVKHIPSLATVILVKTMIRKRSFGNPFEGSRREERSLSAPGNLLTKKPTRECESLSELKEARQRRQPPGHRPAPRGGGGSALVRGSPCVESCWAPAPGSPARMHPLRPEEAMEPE

C=CC(=O)Nc1ccc(C(=O)Nc2[nH]nc3c2CN(C(=O)N[C@H](CN(C)C)c2ccccc2)C3(C)C)cc1
% of engagement [1]: 41.8%

COCC(=O)NC/C=C/c1ccc2ncnc(Nc3ccc(Oc4ccc(C)nc4)c(C)c3)c2c1 [CP-724714]
% of control [2]: 0%

C=CC(=O)Nc1cc(-n2c(=O)ccc3cnc4ccc(-c5ccc(NS(C)(=O)=O)cc5)cc4c32)ccc1C
% of control ([3]; at 1 µM): 100%
% of control ([3]; at 10 µM): 100%

Cn1cc(-n2cnc3c(NCc4nc5cc(Cl)c(Cl)cc5[nH]4)nc(N4CCOCC4)nc32)cn1
% of inhibition [4]: -5.23%
% of control [5]: -4.21%

C=CC(=O)Nc1cccc(C(=O)Nc2ccc(Nc3cc(-c4[nH]c(SC)nc4C)ccn3)cc2)c1
% of control (Activated CDC42 kinase 1; at 1 µM): 100%
% of control (Activated CDC42 kinase 1; at 5 µM): 95%
% of control ([6]; at 1 µM): 92%
% of control ([6]; at 5 µM): 76%

CC(C)(O)[C@H](F)CN1Cc2cc(NC(=O)c3cnn4cccnc34)c(N3CCOCC3)cc2C1=O
dTM [7]: 1 K

O[C@H]1CC[C@H](Nc2ncc3nc(Nc4c(F)cc(F)cc4F)n([C@H]4CCOC4)c3n2)CC1
% of control [8]: 85%

CC[C@@H]1[C@H](F)C(=O)N[C@@H]1COc1nccc2cc(C(N)=O)c(OC)cc12 [ZIMLOVISERTIB]
% of inhibition [9]: 56.9%

CN(C)CCOc1ccc(-c2nc(-c3ccncc3)c(-c3ccc4c(c3)CC/C4=N\O)[nH]2)cc1
% of control [10]: 70%
% of control [11]: 94%
